Data: ChEMBL document CHEMBL4507267 (2021)

Legend:
[1] = target: TRAF2 and NCK-interacting protein kinase (Homo sapiens) (UniProt Q9UKE5); conditions: Compound concentration 1000.0 nM
[2] = target: MAP/microtubule affinity-regulating kinase 4 (Homo sapiens) (UniProt Q96L34); conditions: Compound concentration 1000.0 nM
[3] = target: RAC-gamma serine/threonine-protein kinase (Homo sapiens) (UniProt Q9Y243); conditions: Compound concentration 1000.0 nM
[4] = target: Casein kinase I isoform gamma-3 (Homo sapiens) (UniProt Q9Y6M4); conditions: Compound concentration 1000.0 nM
[5] = target: Phosphorylase b kinase regulatory subunit alpha, liver isoform (Homo sapiens) (UniProt P46019); conditions: Compound concentration 1000.0 nM
[6] = target: Receptor-type tyrosine-protein kinase FLT3 (Homo sapiens) (UniProt P36888); conditions: Compound concentration 1000.0 nM
[7] = target: Dual specificity mitogen-activated protein kinase kinase 5 (Homo sapiens) (UniProt Q13163); conditions: Compound concentration 1000.0 nM
[8] = target: Casein kinase II subunit alpha (Homo sapiens) (UniProt P68400); conditions: Compound concentration 1000.0 nM
[9] = target: Dual specificity tyrosine-phosphorylation-regulated kinase 1B (Homo sapiens) (UniProt Q9Y463); conditions: Compound concentration 1000.0 nM
[10] = tested on: Epidermal growth factor receptor (Homo sapiens), P00533 [UNDEFINED MUTATION]; conditions: Compound concentration 1000.0 nM
[11] = tested on: Receptor-type tyrosine-protein kinase FLT3 (Homo sapiens), P36888 [UNDEFINED MUTATION]; conditions: Compound concentration 1000.0 nM
[12] = target: Tyrosine-protein kinase JAK1 (Homo sapiens) (UniProt P23458); conditions: Compound concentration 1000.0 nM
[13] = target: Rhodopsin kinase GRK7 (Homo sapiens) (UniProt Q8WTQ7); conditions: Compound concentration 1000.0 nM
[14] = tested on: Tyrosine-protein kinase ABL1 (Homo sapiens), P00519 [F317I]; conditions: Compound concentration 1000.0 nM
[15] = target: Tyrosine-protein kinase Lck (Homo sapiens) (UniProt P06239); conditions: Compound concentration 1000.0 nM
[16] = target: Serine/threonine-protein kinase Sgk1 (Homo sapiens) (UniProt O00141); conditions: Compound concentration 1000.0 nM
[17] = target: 5'-AMP-activated protein kinase catalytic subunit alpha-2 (Homo sapiens) (UniProt P54646); conditions: Compound concentration 1000.0 nM
[18] = target: RAF proto-oncogene serine/threonine-protein kinase (Homo sapiens) (UniProt P04049); conditions: Compound concentration 1000.0 nM
[19] = target: Mitogen-activated protein kinase 13 (Homo sapiens) (UniProt O15264); conditions: Compound concentration 1000.0 nM
[20] = target: Beta-adrenergic receptor kinase 1 (Homo sapiens) (UniProt P25098); conditions: Compound concentration 1000.0 nM
[21] = target: Transient receptor potential cation channel subfamily M member 6 (Homo sapiens) (UniProt Q9BX84); conditions: Compound concentration 1000.0 nM
[22] = target: Serine/threonine-protein kinase PLK1 (Homo sapiens) (UniProt P53350); conditions: Compound concentration 1000.0 nM
[23] = target: Dual specificity mitogen-activated protein kinase kinase 2 (Homo sapiens) (UniProt P36507); conditions: Compound concentration 1000.0 nM
[24] = tested on: Epidermal growth factor receptor (Homo sapiens), P00533 [G719S]; conditions: Compound concentration 1000.0 nM
[25] = tested on: Tyrosine-protein kinase ABL1 (Homo sapiens), P00519 [H396P]; conditions: Compound concentration 1000.0 nM
[26] = tested on: Phosphatidylinositol 4,5-bisphosphate 3-kinase catalytic subunit alpha isoform (Homo sapiens), P42336 [E542K]; conditions: Compound concentration 1000.0 nM
[27] = target: Serine/threonine-protein kinase OSR1 (Homo sapiens) (UniProt O95747); conditions: Compound concentration 1000.0 nM
[28] = target: Serine/threonine-protein kinase 3 (Homo sapiens) (UniProt Q13188); conditions: Compound concentration 1000.0 nM
[29] = target: Focal adhesion kinase 1 (Homo sapiens) (UniProt Q05397); conditions: Compound concentration 1000.0 nM
[30] = target: Ribosomal protein S6 kinase alpha-6 (Homo sapiens) (UniProt Q9UK32); conditions: Compound concentration 1000.0 nM
[31] = tested on: Hepatocyte growth factor receptor (Homo sapiens), P08581 [M1250T]; conditions: Compound concentration 1000.0 nM
[32] = target: Calcium/calmodulin-dependent protein kinase type II subunit delta (Homo sapiens) (UniProt Q13557); conditions: Compound concentration 1000.0 nM
[33] = target: Dual specificity mitogen-activated protein kinase kinase 3 (Homo sapiens) (UniProt P46734); conditions: Compound concentration 1000.0 nM
[34] = target: Serine/threonine-protein kinase Chk1 (Homo sapiens) (UniProt O14757); conditions: Compound concentration 1000.0 nM
[35] = target: Serine/threonine-protein kinase PRP4 homolog (Homo sapiens) (UniProt Q13523); conditions: Compound concentration 1000.0 nM
[36] = target: Receptor tyrosine-protein kinase erbB-2 (Homo sapiens) (UniProt P04626); conditions: Compound concentration 1000.0 nM
[37] = target: Vascular endothelial growth factor receptor 2 (Homo sapiens) (UniProt P35968); conditions: Compound concentration 1000.0 nM
[38] = target: Bone morphogenetic protein receptor type-2 (Homo sapiens) (UniProt Q13873); conditions: Compound concentration 1000.0 nM
[39] = target: Aurora kinase B (Homo sapiens) (UniProt Q96GD4); conditions: Compound concentration 1000.0 nM
[40] = target: D(4) dopamine receptor (Homo sapiens) (UniProt P21917); conditions: Compound concentration 10.0 uM
[41] = target: Serine/threonine-protein kinase Nek10 (Homo sapiens) (UniProt Q6ZWH5); conditions: Compound concentration 1000.0 nM
[42] = target: Receptor-interacting serine/threonine-protein kinase 1 (Homo sapiens) (UniProt Q13546); conditions: Compound concentration 1000.0 nM
[43] = target: Serine/threonine-protein kinase MRCK gamma (Homo sapiens) (UniProt Q6DT37); conditions: Compound concentration 1000.0 nM
[44] = tested on: Epidermal growth factor receptor (Homo sapiens), P00533 [L858R,T790M]; conditions: Compound concentration 1000.0 nM

Chain of Receptor-type tyrosine-protein kinase FLT3 (Homo sapiens), P36888 [UNDEFINED MUTATION] (P36888 whole entry, looked up, change not shown): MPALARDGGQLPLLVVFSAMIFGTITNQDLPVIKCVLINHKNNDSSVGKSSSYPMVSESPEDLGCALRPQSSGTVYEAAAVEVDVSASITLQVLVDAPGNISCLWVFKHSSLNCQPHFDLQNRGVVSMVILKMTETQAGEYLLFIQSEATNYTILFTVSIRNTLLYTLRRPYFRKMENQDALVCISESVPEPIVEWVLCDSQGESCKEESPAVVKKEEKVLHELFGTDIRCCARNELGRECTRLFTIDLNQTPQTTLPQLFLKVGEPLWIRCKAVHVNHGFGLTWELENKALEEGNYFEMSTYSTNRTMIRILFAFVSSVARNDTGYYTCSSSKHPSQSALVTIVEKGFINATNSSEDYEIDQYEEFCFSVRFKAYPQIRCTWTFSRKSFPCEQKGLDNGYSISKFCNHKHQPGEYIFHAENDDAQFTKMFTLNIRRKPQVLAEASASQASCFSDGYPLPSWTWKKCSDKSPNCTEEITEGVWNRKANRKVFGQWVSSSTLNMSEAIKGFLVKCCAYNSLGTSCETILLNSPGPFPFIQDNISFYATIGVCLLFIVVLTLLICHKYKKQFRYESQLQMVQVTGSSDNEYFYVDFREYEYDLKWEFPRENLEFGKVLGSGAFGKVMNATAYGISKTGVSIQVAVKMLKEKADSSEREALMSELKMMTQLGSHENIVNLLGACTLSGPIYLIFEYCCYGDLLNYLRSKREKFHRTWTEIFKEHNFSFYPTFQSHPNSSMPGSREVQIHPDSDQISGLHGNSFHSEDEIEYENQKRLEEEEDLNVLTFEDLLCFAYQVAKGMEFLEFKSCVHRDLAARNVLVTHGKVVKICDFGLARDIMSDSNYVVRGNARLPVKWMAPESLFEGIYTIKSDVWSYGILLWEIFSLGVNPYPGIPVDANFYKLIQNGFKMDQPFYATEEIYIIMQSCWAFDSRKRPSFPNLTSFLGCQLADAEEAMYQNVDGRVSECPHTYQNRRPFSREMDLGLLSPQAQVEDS
Chain of Receptor-type tyrosine-protein kinase FLT3 (Homo sapiens) (P36888 whole entry): as the sequence (P36888 whole entry, looked up, change not shown) above
Chain of Phosphorylase b kinase regulatory subunit alpha, liver isoform (Homo sapiens) (P46019 whole entry, canonical isoform): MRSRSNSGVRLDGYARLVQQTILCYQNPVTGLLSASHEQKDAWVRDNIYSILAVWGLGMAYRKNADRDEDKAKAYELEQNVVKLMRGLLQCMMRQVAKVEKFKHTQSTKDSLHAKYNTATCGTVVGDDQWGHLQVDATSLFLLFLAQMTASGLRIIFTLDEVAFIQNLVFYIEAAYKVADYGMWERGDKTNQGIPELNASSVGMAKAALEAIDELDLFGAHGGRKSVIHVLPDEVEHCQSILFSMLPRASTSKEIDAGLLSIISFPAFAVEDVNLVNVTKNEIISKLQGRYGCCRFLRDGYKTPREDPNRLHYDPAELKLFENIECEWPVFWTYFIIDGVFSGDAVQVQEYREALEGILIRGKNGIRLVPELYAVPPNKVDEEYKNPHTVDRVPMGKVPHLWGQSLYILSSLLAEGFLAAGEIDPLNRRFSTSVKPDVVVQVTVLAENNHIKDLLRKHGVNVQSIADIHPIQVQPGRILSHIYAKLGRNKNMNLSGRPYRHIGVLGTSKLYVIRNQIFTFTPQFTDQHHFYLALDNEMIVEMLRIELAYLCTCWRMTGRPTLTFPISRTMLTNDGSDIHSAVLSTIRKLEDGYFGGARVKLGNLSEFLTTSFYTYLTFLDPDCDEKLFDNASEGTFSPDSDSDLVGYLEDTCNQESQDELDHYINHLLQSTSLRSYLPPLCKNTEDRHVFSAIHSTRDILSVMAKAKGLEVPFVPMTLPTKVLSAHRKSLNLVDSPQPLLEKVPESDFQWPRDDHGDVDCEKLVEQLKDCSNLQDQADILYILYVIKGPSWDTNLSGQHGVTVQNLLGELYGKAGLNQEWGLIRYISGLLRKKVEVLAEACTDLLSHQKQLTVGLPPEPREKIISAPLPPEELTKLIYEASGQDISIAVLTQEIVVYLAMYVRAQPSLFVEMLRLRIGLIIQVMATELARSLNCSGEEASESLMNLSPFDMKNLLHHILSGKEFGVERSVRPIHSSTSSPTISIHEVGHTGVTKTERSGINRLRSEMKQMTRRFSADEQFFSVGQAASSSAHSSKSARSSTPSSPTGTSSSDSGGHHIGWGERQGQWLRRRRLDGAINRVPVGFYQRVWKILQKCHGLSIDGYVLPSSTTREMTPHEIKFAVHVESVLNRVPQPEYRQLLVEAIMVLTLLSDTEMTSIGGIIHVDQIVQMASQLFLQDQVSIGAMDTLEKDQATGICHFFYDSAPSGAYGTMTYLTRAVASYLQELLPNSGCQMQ
Chain of Casein kinase II subunit alpha (Homo sapiens) (P68400 whole entry, looked up): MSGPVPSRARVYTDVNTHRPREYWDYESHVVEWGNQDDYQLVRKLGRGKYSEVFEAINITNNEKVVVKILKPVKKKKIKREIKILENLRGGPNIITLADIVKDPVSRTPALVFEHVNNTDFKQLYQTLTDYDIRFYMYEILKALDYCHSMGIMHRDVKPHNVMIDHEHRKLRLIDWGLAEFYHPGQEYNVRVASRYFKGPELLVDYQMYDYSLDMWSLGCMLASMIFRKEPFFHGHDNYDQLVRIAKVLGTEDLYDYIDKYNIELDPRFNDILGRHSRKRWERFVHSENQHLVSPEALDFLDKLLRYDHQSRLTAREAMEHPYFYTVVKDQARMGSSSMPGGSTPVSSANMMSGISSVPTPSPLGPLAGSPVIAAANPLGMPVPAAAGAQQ
Chain of Serine/threonine-protein kinase 3 (Homo sapiens) (Q13188 whole entry): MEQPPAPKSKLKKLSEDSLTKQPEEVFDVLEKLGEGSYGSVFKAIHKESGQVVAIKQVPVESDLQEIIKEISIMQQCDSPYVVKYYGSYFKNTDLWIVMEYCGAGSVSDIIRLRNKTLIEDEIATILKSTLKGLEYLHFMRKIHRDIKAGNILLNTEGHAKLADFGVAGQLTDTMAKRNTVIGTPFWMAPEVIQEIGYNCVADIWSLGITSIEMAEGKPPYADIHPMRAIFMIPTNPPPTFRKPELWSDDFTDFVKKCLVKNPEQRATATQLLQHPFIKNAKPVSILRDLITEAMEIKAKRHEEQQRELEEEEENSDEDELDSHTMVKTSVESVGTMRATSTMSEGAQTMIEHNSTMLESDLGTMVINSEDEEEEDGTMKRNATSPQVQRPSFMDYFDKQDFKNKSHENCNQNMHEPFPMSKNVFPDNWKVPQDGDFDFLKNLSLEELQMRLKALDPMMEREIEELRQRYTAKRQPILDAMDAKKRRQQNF
Chain of Focal adhesion kinase 1 (Homo sapiens) (Q05397 2-1052 limits assumed): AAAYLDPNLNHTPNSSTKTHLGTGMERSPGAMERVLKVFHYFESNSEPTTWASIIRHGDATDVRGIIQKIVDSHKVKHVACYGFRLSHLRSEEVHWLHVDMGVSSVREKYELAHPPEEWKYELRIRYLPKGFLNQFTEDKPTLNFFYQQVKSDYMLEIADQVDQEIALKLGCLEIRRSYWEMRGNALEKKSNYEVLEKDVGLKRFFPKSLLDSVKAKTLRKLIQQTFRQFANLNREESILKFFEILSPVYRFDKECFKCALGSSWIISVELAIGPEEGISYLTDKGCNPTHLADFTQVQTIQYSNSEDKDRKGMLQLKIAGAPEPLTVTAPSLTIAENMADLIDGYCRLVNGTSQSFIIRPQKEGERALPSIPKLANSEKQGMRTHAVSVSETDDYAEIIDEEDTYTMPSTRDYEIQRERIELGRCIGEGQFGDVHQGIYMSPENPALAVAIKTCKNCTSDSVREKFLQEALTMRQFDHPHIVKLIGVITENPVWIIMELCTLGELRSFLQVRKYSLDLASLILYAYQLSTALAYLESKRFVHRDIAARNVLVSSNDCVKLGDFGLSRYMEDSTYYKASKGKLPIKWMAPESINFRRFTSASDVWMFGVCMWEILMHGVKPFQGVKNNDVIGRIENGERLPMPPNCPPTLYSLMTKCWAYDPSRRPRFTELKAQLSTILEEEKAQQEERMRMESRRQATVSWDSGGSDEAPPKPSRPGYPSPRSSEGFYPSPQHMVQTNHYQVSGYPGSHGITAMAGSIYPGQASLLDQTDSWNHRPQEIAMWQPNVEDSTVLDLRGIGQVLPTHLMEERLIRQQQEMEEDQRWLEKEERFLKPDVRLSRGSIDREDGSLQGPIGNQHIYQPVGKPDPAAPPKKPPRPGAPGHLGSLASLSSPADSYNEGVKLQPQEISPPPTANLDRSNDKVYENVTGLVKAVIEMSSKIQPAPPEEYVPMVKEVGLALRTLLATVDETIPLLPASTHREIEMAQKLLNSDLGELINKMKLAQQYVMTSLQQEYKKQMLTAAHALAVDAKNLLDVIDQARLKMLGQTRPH
Chain of Serine/threonine-protein kinase OSR1 (Homo sapiens) (O95747 2-527 limits assumed): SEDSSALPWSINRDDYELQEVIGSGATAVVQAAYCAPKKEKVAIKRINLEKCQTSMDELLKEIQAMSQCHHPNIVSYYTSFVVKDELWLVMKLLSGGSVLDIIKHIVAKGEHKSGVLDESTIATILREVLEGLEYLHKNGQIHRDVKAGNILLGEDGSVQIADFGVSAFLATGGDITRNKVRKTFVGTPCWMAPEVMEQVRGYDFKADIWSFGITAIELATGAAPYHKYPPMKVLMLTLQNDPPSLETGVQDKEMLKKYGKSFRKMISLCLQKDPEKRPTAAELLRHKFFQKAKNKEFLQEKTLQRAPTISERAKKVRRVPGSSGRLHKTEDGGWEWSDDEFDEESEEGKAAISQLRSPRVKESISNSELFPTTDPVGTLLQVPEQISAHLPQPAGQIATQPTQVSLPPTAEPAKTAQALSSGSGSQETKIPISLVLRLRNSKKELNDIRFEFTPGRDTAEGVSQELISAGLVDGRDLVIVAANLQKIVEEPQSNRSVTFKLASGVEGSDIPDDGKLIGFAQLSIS
Chain of Aurora kinase B (Homo sapiens) (Q96GD4 whole entry): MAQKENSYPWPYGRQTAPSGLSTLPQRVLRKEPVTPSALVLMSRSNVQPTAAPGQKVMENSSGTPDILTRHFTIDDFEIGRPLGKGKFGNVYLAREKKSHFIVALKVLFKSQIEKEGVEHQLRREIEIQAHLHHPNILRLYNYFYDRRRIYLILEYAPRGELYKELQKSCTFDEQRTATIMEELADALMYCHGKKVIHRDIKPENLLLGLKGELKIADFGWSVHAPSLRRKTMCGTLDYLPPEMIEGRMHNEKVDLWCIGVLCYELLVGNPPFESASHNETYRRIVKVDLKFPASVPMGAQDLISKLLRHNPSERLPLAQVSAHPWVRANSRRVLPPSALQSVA

Q: Which residual activity [1] does the source give for `Cc1c(NC(=O)c2cc(C(N)=O)nc3cc(F)ccc23)c(C(F)(F)F)nn1Cc1ccc(C(C)(C)C)cc1` [BAY-588] here?
A: 98%

Q: And the residual activity [2]?
A: 97%

Q: What about the residual activity [3] of the same compound?
A: 100%

Q: And the residual activity [4]?
A: 100%

Q: And the residual activity [5]?
A: 83%

Q: And the residual activity [6]?
A: 100%

Q: And the residual activity [7]?
A: 78%

Q: And the residual activity [8]?
A: 100%

Q: What about the residual activity [9] of the same compound?
A: 81%

Q: And the residual activity [10]?
A: 100%

Q: What about the residual activity [11] of the same compound?
A: 95%

Q: What about the residual activity [12] of the same compound?
A: 100%

Q: What about the residual activity [13] of the same compound?
A: 100%

Q: What about the residual activity [14] of the same compound?
A: 100%

Q: What about the residual activity [15] of the same compound?
A: 100%

Q: And the residual activity [16]?
A: 100%

Q: And the residual activity [17]?
A: 100%

Q: What about the residual activity [18] of the same compound?
A: 88%

Q: And the residual activity [19]?
A: 49%

Q: And the residual activity [20]?
A: 100%

Q: What about the residual activity [21] of the same compound?
A: 100%

Q: What about the residual activity [22] of the same compound?
A: 99%

Q: And the residual activity [23]?
A: 100%

Q: And the residual activity [24]?
A: 78%

Q: And the residual activity [25]?
A: 100%

Q: What about the residual activity [26] of the same compound?
A: 43%

Q: And the residual activity [27]?
A: 100%

Q: What about the residual activity [28] of the same compound?
A: 90%

Q: And the residual activity [29]?
A: 100%

Q: And the residual activity [30]?
A: 100%

Q: What about the residual activity [31] of the same compound?
A: 88%

Q: And the residual activity [32]?
A: 84%

Q: And the residual activity [33]?
A: 90%

Q: And the residual activity [34]?
A: 100%

Q: What about the residual activity [35] of the same compound?
A: 73%

Q: What about the residual activity [36] of the same compound?
A: 92%

Q: And the residual activity [37]?
A: 100%

Q: What about the residual activity [38] of the same compound?
A: 100%

Q: What about the residual activity [39] of the same compound?
A: 100%

Q: And the inhibition [40]?
A: 4.93%

Q: And the residual activity [41]?
A: 100%

Q: What about the residual activity [42] of the same compound?
A: 100%

Q: And the residual activity [43]?
A: 91%

Q: And the residual activity [44]?
A: 100%

Q: For `Cc1c(NC(=O)c2cc(C(N)=O)nc3cc(F)ccc23)c(C(F)(F)F)nn1Cc1ccc(C#N)cc1` [BAY-876], which residual activity [1] is on record?
A: 92%

Q: What about the residual activity [2] of the same compound?
A: 100%

Q: What about the residual activity [3] of the same compound?
A: 81%

Q: What about the residual activity [4] of the same compound?
A: 100%

Q: And the residual activity [5]?
A: 94%

Q: What about the residual activity [6] of the same compound?
A: 83%

Q: And the residual activity [7]?
A: 88%

Q: What about the residual activity [8] of the same compound?
A: 78%

Q: And the residual activity [9]?
A: 87%

Q: What about the residual activity [10] of the same compound?
A: 91%

Q: And the residual activity [11]?
A: 80%

Q: And the residual activity [12]?
A: 100%

Q: What about the residual activity [13] of the same compound?
A: 75%

Q: What about the residual activity [14] of the same compound?
A: 75%

Q: What about the residual activity [15] of the same compound?
A: 98%

Q: What about the residual activity [16] of the same compound?
A: 90%

Q: What about the residual activity [17] of the same compound?
A: 100%

Q: What about the residual activity [18] of the same compound?
A: 86%

Q: And the residual activity [19]?
A: 70%

Q: What about the residual activity [20] of the same compound?
A: 87%

Q: What about the residual activity [21] of the same compound?
A: 87%

Q: And the residual activity [22]?
A: 88%

Q: What about the residual activity [23] of the same compound?
A: 89%

Q: What about the residual activity [24] of the same compound?
A: 86%

Q: What about the residual activity [25] of the same compound?
A: 81%

Q: And the residual activity [26]?
A: 84%

Q: What about the residual activity [27] of the same compound?
A: 67%

Q: And the residual activity [28]?
A: 96%

Q: And the residual activity [29]?
A: 96%

Q: What about the residual activity [30] of the same compound?
A: 66%

Q: What about the residual activity [31] of the same compound?
A: 91%

Q: And the residual activity [32]?
A: 90%

Q: And the residual activity [33]?
A: 88%

Q: And the residual activity [34]?
A: 75%

Q: What about the residual activity [35] of the same compound?
A: 93%

Q: What about the residual activity [36] of the same compound?
A: 100%

Q: And the residual activity [37]?
A: 80%

Q: What about the residual activity [38] of the same compound?
A: 89%

Q: What about the residual activity [39] of the same compound?
A: 72%

Q: What about the inhibition [40] of the same compound?
A: 15.1%

Q: What about the residual activity [41] of the same compound?
A: 83%

Q: And the residual activity [42]?
A: 100%

Q: What about the residual activity [43] of the same compound?
A: 91%

Q: And the residual activity [44]?
A: 93%
